The record followed here is a melting point compilation (Tetko et al.; mined from patent text by program, amines drawn as free bases though some values may be those of a salt).

Take `O=S(=O)(Nc1ccc2c(OCc3coc(-c4ccc(C(F)(F)F)cc4)n3)cccc2c1)C(F)(F)F`: the melting point is 205 to 207 °C.

As to `c1ccc(-c2nn3c(c2-c2ccnc4cc(OCCN5CCOCC5)ccc24)CCCCC3)nc1`, the melting point was in the range of 157 to 159 °C.

`O=C(CCCN1CCN(c2cc(-c3ccc(F)cc3)c3c(n2)CCC3)CC1)c1ccc(F)cc1` registered a melting point of 115 to 116 °C.

In the case of `CC(C)(n1cncn1)C(O)(Cn1cncn1)c1ccc(Cl)cc1` (configuration not stated), the melting point amounted to 114 °C.

As for `Cc1cc(O)c(C(C)(C)C)cc1N`, the melting point was 191 to 192 °C.

Molecule `CCCOc1ccc(C(=O)Cn2cncn2)cc1` gave a melting point of 97 to 99 °C.

The molecule `Cc1nc2c3c(c(CCl)cn2c1C)CCC(c1ccccc1)C3` (configuration not stated) yielded a melting point of 155 to 157 °C.

Turning to `NCCC1Cc2ccc(C3=NNC(=O)CC3)cc2C1` (configuration not stated), the melting point was 189 to 190 °C.

Take `CC1(C)COc2cc(Cl)c(F)cc2C(O)(c2ccccn2)C1` (configuration not stated): the melting point was determined as 100 °C.

Turning to `CCC1(O)CC(=O)OCc2c1cc1n(c2=O)Cc2c-1nc1cc(F)c(F)cc1c2-c1ccccc1` (configuration not stated), the melting point was over 250 °C.

For the molecule `COc1ccc(CNc2nnc(OCCCO)c3ccc(Cl)cc23)cc1Cl`, the melting point lay in the range of 124 to 126 °C.

`CC(C)(C)c1ccc(C(O)(c2ccc(Cl)cc2)c2ncc[nH]2)cc1` (configuration not stated) gave a melting point of 95 to 110 °C.

With `O=Cc1c2ccccc2c(Cl)c2c(Cl)cccc12`, the melting point was 167 to 170 °C.

In turn, `CON=CC(C)(C#N)NC(=O)C(Oc1ccc2ncc(Br)cc2c1)SC` (configuration not stated) returned a melting point of 138 to 145 °C.

Consider `COc1cc(COc2cc(N)c(Cl)cc2C(=O)CCCCN2CCCCCC2)cc(OC)c1`, for which the melting point fell in the range of 137 to 139 °C.

As for `N#CCOc1ccccc1OCC#N`, the melting point was in the range of 85 to 85.5 °C.

`O=c1[nH]cnc2ccc(S(=O)(=O)Cl)cc12`: the melting point is over 400 °C.

As to `COc1ccc(Cc2nccc3cc(O)ccc23)cc1OC`, the melting point was 190 to 192 °C.

Turning to `Cc1ccc2[nH]c3c(c2c1)C(C(=O)OCc1ccccc1)CCC3` (configuration not stated), the melting point lay within 115 to 117 °C.

With `CCCCc1nc(C)n2nc(S)nc2c1Cc1ccc(-c2ccccc2)c(-c2nnn[nH]2)c1`, the melting point lay in the range of 135 to 137 °C.

Molecule `O=C(Nc1ccc(C(F)(F)F)cc1)C12CC3CC(CC(C3)C1)C2` showed a melting point of 189 to 193 °C.

In turn, `CCCOc1ccc(S(C)(=O)=O)cc1C(=O)Nc1c(C(N)=O)nn(CC2CC2)c1CC` showed a melting point of 185 to 186 °C.

For `Cc1cc(C)c(C(=O)c2ccc(-c3ccccc3)cc2)c(C)c1`, the melting point is 111 to 112 °C.

`CCCN1C(=O)N2C[C@@H](Cc3ccccc3)N=C2c2[nH]c(C3(O)CCCC3)nc21` returned a melting point of 110 to 115 °C.

`Cc1c(F)cc(C(=O)O)c(Cl)c1N` returned a melting point of 182 to 184 °C.

In turn, `Cc1cc2oc(C(=O)O)cc(=O)c2c(C)c1Cl` had a melting point of 289 to 290 °C.

Take `NC(=NO)c1ccc(C(F)(F)F)cn1`: the melting point is 130 to 133 °C.

Molecule `CCc1c(CC(C)(C)C(=O)O)ccc2c1OCO2` gave a melting point of 73 to 74 °C.

`C=CCOc1ccc(C(=O)Oc2ccc(OCCCCOC(=O)C(=C)C)cc2)cc1` registered a melting point of 62 to 63 °C.

The molecule `OCC(COc1noc2ccc(Cl)cc12)NC(c1ccccc1)(c1ccccc1)c1ccccc1` (configuration not stated) showed a melting point of 142 to 144 °C.

Take `CCCn1nc(C(C)C)c(C(=O)OCOC(C)=O)c1Cc1ccc(-c2ccccc2-c2nnn[nH]2)cc1`: the melting point is 58 to 63 °C.

The molecule `CC(C)C1=C(C#N)C(c2ccccc2Br)c2c(n[nH]c2CC#N)N1` (configuration not stated) had a melting point of over 250 °C.

With `COC(=O)c1cc(-c2ccncc2)ccc1C(=O)N1CCN(C(=O)OC(C)(C)C)CC1`, the melting point lay within 144 to 146 °C.

`Cc1c(/C=C2\COc3ccc4ccccc4c3C2=O)ncn1C(c1ccccc1)(c1ccccc1)c1ccccc1` gave a melting point of 164 to 167 °C.

`CC(=O)c1ccc(-c2c(C)c(NC(=O)CC(C)(C)C)c(C)c3c2OCC3c2ccc(C(C)C)cc2)s1` (configuration not stated) had a melting point of 157 to 158 °C.

`CN1CCC(N2C(=O)Nc3ccccc3C2c2ccccc2)CC1` (configuration not stated) came in with a melting point of 252 to 253 °C.

`CC(C)CCN1N=C(c2ccc(F)cc2)c2cc(F)ccc2CS1(=O)=O`: the melting point fell in the range of 130 to 133 °C.

On to `O=P1(C2CCCCC2)c2ccccc2CN1c1ccccc1` (configuration not stated), for which the melting point lay within 167 to 169 °C.

Consider `O=c1[nH]c2ccc(Cl)cc2c2cc(CO)nn12`, for which the melting point lay in the range of 316 to 318 °C.

Regarding `CC(C)(O)c1c(F)ccc(-c2ccc3nc(-c4ccc(Cl)cc4)cn3c2)c1F`, the melting point fell in the range of 191 to 192 °C.

On to `CCCc1nc(CC)c(C(=O)O)n1Cc1ccc(C2(C(=O)O)CC=CC2)s1`, for which the melting point lay within 157 to 161 °C.

As to `O=C1Nc2ccc(C3CCCCC3)cc2C12OCCO2`, the melting point lay in the range of 178 to 180 °C.

For `C#CCOCCCCCCCCCC(=O)O`, the melting point was under 30 °C.

With `FC(F)(F)c1ccc(COc2ncncc2Oc2ccccc2)cc1`, the melting point was in the range of 56 to 57 °C.

With `CCN1C(=O)NC(=C(C(C)=O)C(C)=O)C1=O`, the melting point is 152 to 153 °C.

`CS(=O)(=O)c1cc2c(cc1O)CCNCC2` yielded a melting point of 241 to 242 °C.

Consider `C=CCOC(=O)C(Cc1ccc2ccc3cccc4ccc1c2c34)(Cc1ccc2ccc3cccc4ccc1c2c34)C(=O)OCC=C`, for which the melting point fell in the range of 178 to 180 °C.

`COc1ccccc1-c1cc(N2CCN(Cc3ccc(C)cc3)CC2)n2ccc(=O)ccc12` displayed a melting point of 186 °C.

In turn, `CSc1nn2c(N)ncnc2c1S(=O)(=O)c1ccccc1` gave a melting point of over 280 °C.

`O=C(O)CC(=O)Nc1ccc2c(c1)c(=O)[nH]c(=O)n2CCCCN1CCC(OC(c2ccccc2)c2ccccc2)CC1` came in with a melting point of 166 to 168 °C.

For the molecule `Cc1ccc(N2N=C3c4cc(CCO)sc4CCC3CC2=O)cc1` (configuration not stated), the melting point fell in the range of 159 to 160 °C.

On to `COc1cc(Nc2c(C#N)cnc3cc(-c4csc(CN5CCOCC5)c4)sc23)c(Cl)cc1Cl`, for which the melting point was in the range of 209 to 212 °C.

For `COC(=O)CCc1c[nH]cn1`, the melting point was 105 to 108 °C.

`C[Si](C)(C)CCCOc1cc(Cl)c([N+](=O)[O-])cc1Cl` had a melting point of 45 to 48 °C.

In turn, `CC(C)(C)c1ccc(-c2nc(NC(=O)C3CCCC3)sc2-c2ccncc2)cc1` yielded a melting point of 309 to 311 °C.

Molecule `O=S(=O)(CCN1CCC2(CC1)OCc1ccccc12)CCN1CCC2(CC1)OCc1ccccc12` showed a melting point of 170 to 172 °C.

With `COc1ccc(C(=O)C2=C(O)C(=O)N(c3nnc(C)s3)C2c2cccc(C(=O)O)c2)cc1` (configuration not stated), the melting point was determined as 281 °C.

Molecule `CC/C(=C\C#N)c1ccc2c(c1)C(CC)(CC)OC(=O)N2` registered a melting point of 135 to 136 °C.

In the case of `COC(c1ccc(Cl)c2nc3n(c12)CCCN3c1ccc(Cl)cc1Cl)(C1CC1)C1CC1`, the melting point fell in the range of 99 to 100 °C.

Regarding `Fc1ccc(-c2[nH]nc(Br)c2-c2ccncc2)cc1F`, the melting point lay within 285 to 290 °C.

`O=C1C(Cc2ccncc2)c2ccccc2N1N1CCOCC1` (configuration not stated) gave a melting point of 108 to 110 °C.

Consider `COc1ccccc1N1CCN(CCCNc2ncc3cc(-c4c(Cl)cccc4Cl)c(=O)n(C)c3n2)CC1`, for which the melting point fell in the range of 187 to 188 °C.

With `CC(=O)Nc1cc(N(C)C)c([N+](=O)[O-])cc1C(=O)O`, the melting point is 230 to 255 °C.

For the molecule `O=C(O)Cc1cccc(C(=O)c2ccc(OCc3ccc4ccccc4n3)cc2)c1`, the melting point lay within 146 to 147 °C.

`O=P(O)(O)c1ccc2ccccc2n1` had a melting point of 200 °C.

For the molecule `CCOC(=O)c1c(CN(CC)CC)nc2sc3ccncc3c2c1-c1ccc(OC)c(OC)c1`, the melting point fell in the range of 141 to 142 °C.

Molecule `CCCCc1oc2ccccc2c1CCc1ccc(OS(=O)(=O)c2ccc(C(=O)O)c(OC(C)=O)c2)cc1` came in with a melting point of 54 to 57 °C.

On to `CCCCCCCCCCCCCCCCCCOC(=O)CBr`, for which the melting point is 37 to 40 °C.

Molecule `O=C(NCc1nccs1)c1ccnc(N2CCN(Cc3ccc(F)cc3)C2=O)c1` returned a melting point of 123 to 125 °C.

As to `CN(C)CCCn1cc(-c2ccccc2)sc1=Nc1ccccc1`, the melting point was in the range of 84 to 86 °C.

`Cc1ccc(N2C(=O)c3nccnc3C2OC(=O)Oc2ccccc2)nc1` (configuration not stated): the melting point came out at 176 °C.

The molecule `O=C(COc1ccccc1)NC1C(=O)N(C(O)(Cc2ccccc2)C(=O)O)C1CI` (configuration not stated) showed a melting point of 159 to 160 °C.

As to `Cc1cccc(C(=O)Nc2cn(C3CCCCO3)nc2C(=O)NCCC#N)n1` (configuration not stated), the melting point fell in the range of 186 to 187 °C.

`COC(=O)C1OC(CC(C)C)(c2ccc(Cl)cc2)OC1C(=O)OC` (configuration not stated) yielded a melting point of 40 °C.

Molecule `CCCCCc1c(C(C)C)nc(C(C)C)c(CNCC)c1-c1ccc(F)cc1` returned a melting point of 48 to 50 °C.

Molecule `CC12C=CCC1C1CCC3CC(O)CCC3C1CC2` (configuration not stated) yielded a melting point of 113 to 115 °C.

Molecule `O=C(c1ccc(F)cc1)C1CCN(CCCCn2c(=O)[nH]c3cscc3c2=O)CC1` displayed a melting point of 190 to 192 °C.

`CC(=O)c1sc(N2CCN(CC3CC3(F)F)C2=O)nc1C` (configuration not stated): the melting point was 146 to 148 °C.

With `O=C(c1ccc(F)cc1Cl)N1Cc2cccn2Cc2ccccc21`, the melting point was in the range of 110 to 112 °C.

For the molecule `CCc1n[nH]c(CC)c1CCCCCCOc1ccc(OC)cc1Cl`, the melting point was in the range of 91 to 93 °C.

As for `CCCC(=O)NC[C@@H]1CN(c2nc3c(cc2F)c(=O)c(C(=O)OCC)cn3C2CC2)C[C@H]1F` (relative stereo), the melting point was 105 to 107 °C.

On to `CCCCCCCCCCCCCCCC(=O)NC(=O)OCc1nc(C(C)C)c(Sc2cc(Cl)cc(Cl)c2)n1CC`, for which the melting point lay within 95 to 97 °C.

For the molecule `C=C(C)Cc1c(O)cc(C)c(NC=O)c1C`, the melting point is 207 to 209 °C.

As for `CCOC(=O)Cc1c(C(=O)O)c(Br)c(C(=O)c2ccc(C)cc2)n1C`, the melting point lay within 183 to 185 °C.

The molecule `Cc1ccc(-c2ccc3c(c2)C=C(C(=O)Nc2ccc(CN4CCSCC4)cc2)CC3)cc1` displayed a melting point of 178 to 180 °C.

Turning to `Cn1nc(C=O)cc1C(C)(C)CNC(=O)c1ccccc1`, the melting point lay within 150 to 151 °C.

`COCCc1nc2c(N)nc3ccccc3c2n1CCCNC(=O)N1CCOCC1`: the melting point lay in the range of 194 to 196 °C.

The term melting point denotes the temperature of the solid-liquid transition.
